Laboratory results as given in article PMC10487708, “Chlorin E6-Curcumin-Mediated Photodynamic Therapy Promotes an Anti-Photoaging Effect in UVB-Irradiated Fibroblasts” (International Journal of Molecular Sciences, 2023).
“And” between values parts separate entries of the source, which are not always exact repeats. Equal values may be shown once. Read-outs that look alike come from different tables or passages of the source.

Assays:
[1] = tested on: Hs68 cells; test: MTT cell viability of Hs68 cells with or without LED light; type: cell-based, human; conditions: for IC50: Homo sapiens, light or radiation study, Hs68 cells
Method: Data were represented as mean ± SD from at least three independent experiments and analyzed by one-way ANOVA with Tukey’s post hoc test, * p < 0.01, compared with vehicle-treated control.
Hs68 and BALB/c 3T3 cell viability was measured using a 3-[4,5-dimethylthylthiazol-2-yl]-2,5 diphenyl tetrazolium bromide (MTT) assay. The cells were cultured in 24-well plates at a density of 3 × 10^4 cells per well or BALB/c 3T3 cells at a density of 1 × 10^4 cells per well. […] The Hs68 cells were then exposed to LED light (660 nm; 89 W/m^2; 20 J/cm^2) for 37 min 27 s and incubated for 3 h. […] The cells were washed and treated with MTT, after which the plates were incubated at 37 °C in the dark for 2 h. After the formation of formazan, 100 µL of DMSO was added, and the absorbance was measured at 570 nm using a microtiter plate reader (Thermo-scientific, Skanlt software 5.0, Waltham, MA, USA)

[2] = ABTS radical scavenging activity; type: biochemical
Method: […] in 2.5 mM potassium persulfate for more than 16 h to develop 7 mM 2,2′-azinobis-(3-ethylbenzothiazoline-6-sulfonic acid diammonium salt) (ABTS), and ethanol was diluted to obtain an absorbance of 0.3 at 620 nm. Each composite sample was diluted by concentration, and 100 μL of the sample was put into each well along with 50 μL each of ABTS reagent and solvent; reacted at room temperature for 10 min, and absorbance was measured at 620 nm. ABTS activity inhibition (%) = 100 − [test group-blank]/(control group-blank) × 100]

[3] = ORAC (oxygen radical absorbance capacity) assay; type: biochemical; conditions: Trolox equivalent
Method: The ORAC assay is based on the scavenging of peroxyl radicals generated by 2,2′-azobis(2-methylpropioamidine) dihydrochloride (AAPH), which prevents the degradation of the fluorescein probe. The ORAC values were calculated as the area under the curve (AUC) and expressed as µM of Trolox equivalent (TE).

[4] = dark, read-out: Dark Condition (EC50, μM) ABTS radical scavenging

SMILES: C=Cc1c(C)c2cc3nc(c(CC(=O)O)c4[nH]c(cc5nc(cc1[nH]2)C(C)=C5CC)c(C)c4C(=O)O)[C@@H](CCC(=O)O)[C@@H]3C [Ce6, Chlorin e6]
- IC50 ([1]; LED 660 nm 20 J/cm^2, MTT, read-out: Phototoxicity (IC50)): 0.615 µM
- IC50 ([1]; without LED irradiation, MTT, read-out: Dark Toxicity (IC50)): ≥ 1 µM
- cytotoxicity for Hs68 cells ([1]; dark, up to 1000 nM): almost no cytotoxicity
- EC50 ([2]; LED light, read-out: LED Condition (EC50, μM) ABTS radical scavenging): ~19.8 µM and 19.8 µM
- EC50 [2, 4]: ~13.6 µM and 13.6 µM
- ORAC LED Condition (TE, μM) ([3]; LED 20 J/cm^2, 1 μM compound): 22.11 µM
- ORAC LED Condition (TE, μM) ([3]; LED 20 J/cm^2, 10 μM compound): 53.85 µM
- ORAC Dark Condition (TE, μM) ([3]; 1 μM compound): 18.5 µM
- ORAC Dark Condition (TE, μM) ([3]; 10 μM compound): 47.72 µM

SMILES: NCC(=O)CCC(=O)O [5-ALA, 5-Aminolevulinic acid, reference compound]
- EC50 [2, 4]: 60.3 ± 9.51 µM
- ORAC Dark Condition (TE, μM) ([3]; 1 μM compound): undetectable
- ORAC Dark Condition (TE, μM) ([3]; 10 μM compound): undetectable
